Usually IC50 stands for the concentration needed to halve the response being measured.

Where a name gives a salt, the structure may show the parent alone.

For this assay, the target named is T1, His-tagged recombinant human TrkA (Homo sapiens, UniProt P04629).
T1 construct: 6HIS tagged cytoplasmic domain from Invitrogen, Catalog No. PV3144; purchased Invitrogen PV3144
T1 sequence (P04629 440-796 limits assumed): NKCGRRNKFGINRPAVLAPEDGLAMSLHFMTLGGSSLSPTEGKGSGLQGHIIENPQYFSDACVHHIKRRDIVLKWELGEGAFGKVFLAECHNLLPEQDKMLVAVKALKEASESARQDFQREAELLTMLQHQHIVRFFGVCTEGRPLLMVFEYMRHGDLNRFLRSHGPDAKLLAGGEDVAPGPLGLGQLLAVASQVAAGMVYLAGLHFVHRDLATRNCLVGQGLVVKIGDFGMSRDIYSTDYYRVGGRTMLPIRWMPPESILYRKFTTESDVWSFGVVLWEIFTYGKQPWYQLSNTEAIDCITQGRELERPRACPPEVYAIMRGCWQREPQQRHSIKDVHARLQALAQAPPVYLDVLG
Briefly: TrkA Kinase Binding Assay (LanthaScreen Eu). The note with it: averaged IC50; TR-FRET binding, 60 min, 22° C.; read-out: TrkA Enzyme IC50. The gist of the method:
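TR-FRET tracer displacement: 5 nM His-tagged TrkA cytoplasmic domain with 4 nM Tracer 236, biotinylated anti-His and Eu-streptavidin in pH 7.5 MOPS buffer, 2% DMSO, 60 min at 22 °C. 665/615 nm emission ratio gave percent of control; IC50 from four-parameter fit.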
(Time-resolved FRET reads energy transfer from a long-lived donor to a nearby acceptor.)
In the case of `COCc1ccc(OC(F)(F)F)c(CNC(=O)Nc2c(C)c(OC[C@@H]3COCCN3)nn2-c2ccccc2)c1` [Example 103, (S)-1-(5-(methoxymethyl)-2-(trifluoromethoxy)benzyl)-3-(4-methyl-3-(morpholin-3-ylmethoxy)-1-phenyl-1H-pyrazol-5-yl)urea], the IC50 was less than 0.1 µM.
As to `COCc1ccc(OC(F)(F)F)c(CNC(=O)Nc2c(C)c(O[C@H]3C[C@H](N(C)C)C3)nn2-c2ccccc2)c1` [Example 104, 1-(3-((1r,3r)-3-(dimethylamino)cyclobutoxy)-4-methyl-1-phenyl-1H-pyrazol-5-yl)-3-(5-(methoxymethyl)-2-(trifluoromethoxy)benzyl)urea], the concentration for half-maximal inhibition (IC50) is less than 0.1 µM.
With `COCc1ccc(OC(F)F)c(CNC(=O)Nc2c(C)c(OCC3CCNCC3)nn2-c2ccccc2)c1` [Example 105, 1-(2-(difluoromethoxy)-5-(methoxymethyl)benzyl)-3-(4-methyl-1-phenyl-3-(piperidin-4-ylmethoxy)-1H-pyrazol-5-yl)urea], the IC50 was less than 0.1 µM.
For `COCc1ccc(OC(F)(F)F)c(CNC(=O)Nc2c(C)c(OCC3CCN(C)C3)nn2-c2ccccc2)c1` (stereo not drawn) [Example 106, 1-(5-(methoxymethyl)-2-(trifluoromethoxy)benzyl)-3-(4-methyl-3-((1-methylpyrrolidin-3-yl)methoxy)-1-phenyl-1H-pyrazol-5-yl)urea hydrochloride], the half-inhibitory concentration (IC50) was less than 0.1 µM.
Regarding `COCc1ccc(OC(F)F)c(CNC(=O)Nc2c(C)c(OCC3CCN(C)C3)nn2-c2ccccc2)c1` (stereo not drawn) [Example 107, 1-(2-(difluoromethoxy)-5-(methoxymethyl)benzyl)-3-(4-methyl-3-((1-methylpyrrolidin-3-yl)methoxy)-1-phenyl-1H-pyrazol-5-yl)urea], the IC50 was less than 0.1 µM.
Turning to `COCc1ccc(OC(F)F)c(CNC(=O)Nc2c(C)c(OC3CC4(C3)CN(C)C4)nn2-c2ccccc2)c1` [Example 108, 1-(2-(difluoromethoxy)-5-(methoxymethyl)benzyl)-3-(4-methyl-3-((2-methyl-2-azaspiro[3.3]heptan-6-yl)oxy)-1-phenyl-1H-pyrazol-5-yl)urea], the IC50 was less than 0.1 µM.
`COCc1ccc(OC(F)(F)F)c(CNC(=O)Nc2c(C)c(OC[C@H](N)CO)nn2-c2ccccc2)c1` [Example 109, (R)-1-(3-(2-amino-3-hydroxypropoxy)-4-methyl-1-phenyl-1H-pyrazol-5-yl)-3-(5-(methoxymethyl)-2-(trifluoromethoxy)benzyl)urea]: the IC50 is less than 0.1 µM.
With `COCc1ccc(OC(F)(F)F)c(CNC(=O)Nc2c(C)c(OC[C@@H]3COCCN3C)nn2-c2ccccc2)c1` [Example 110, (S)-1-(5-(methoxymethyl)-2-(trifluoromethoxy)benzyl)-3-(4-methyl-3-((4-methylmorpholin-3-yl)methoxy)-1-phenyl-1H-pyrazol-5-yl)urea], the IC50 is less than 0.1 µM.
The figure for `COCc1ccc(OC(F)(F)F)c(CNC(=O)Nc2c(C)c(OCC3CCCN(C)C3)nn2-c2ccccc2)c1` (stereo not drawn) [Example 111, 1-(5-(methoxymethyl)-2-(trifluoromethoxy)benzyl)-3-(4-methyl-3-((1-methylpiperidin-3-yl)methoxy)-1-phenyl-1H-pyrazol-5-yl)urea] is less than 0.1 µM; for `COCc1ccc(OC(F)(F)F)c(CNC(=O)Nc2c(C)c(OC[C@@H]3CNCCO3)nn2-c2ccccc2)c1` [Example 112, (S)-1-(5-(methoxymethyl)-2-(trifluoromethoxy)benzyl)-3-(4-methyl-3-(morpholin-2-ylmethoxy)-1-phenyl-1H-pyrazol-5-yl)urea] it is less than 0.1 µM; for `COCc1ccc(OC(F)(F)F)c(CNC(=O)Nc2c(C)c(OC[C@H]3COCCN3C)nn2-c2ccccc2)c1` [Example 113] it is less than 0.1 µM.
With `COCc1ccc(OC(F)(F)F)c(CNC(=O)Nc2c(C)c(OC[C@@H]3CN(C)CCO3)nn2-c2ccccc2)c1` [Example 114, (S)-1-(5-(methoxymethyl)-2-(trifluoromethoxy)benzyl)-3-(4-methyl-3-((4-methylmorpholin-2-yl)methoxy)-1-phenyl-1H-pyrazol-5-yl)urea], the IC50 was less than 0.1 µM.
To `Cc1c(OCC2CCN(C)CC2)nn(-c2ccccc2)c1NC(=O)NCc1ccccc1OC(F)(F)F` [Example 115, 1-(4-methyl-3-((1-methylpiperidin-4-yl)methoxy)-1-phenyl-1H-pyrazol-5-yl)-3-(2-(trifluoromethoxy)benzyl)urea] belongs less than 0.1 µM; to `COCc1ccc(-c2ccccc2)c(CNC(=O)Nc2c(C)c(-c3cnn(C)c3)nn2-c2ccccc2)c1` [Example 116, 1-(1′,4-dimethyl-1-phenyl-1H,1′H-[3,4′-bipyrazol]-5-yl)-3-((4-(methoxymethyl)-[1,1′-biphenyl]-2-yl)methyl)urea], less than 0.1 µM; to `COCc1cc(CNC(=O)Nc2c(C)c(-c3cnn(C)c3)nn2-c2ccccc2)c(C2CCC2)cc1F` [Example 117, 1-(2-cyclobutyl-4-fluoro-5-(methoxymethyl)benzyl)-3-(1′,4-dimethyl-1-phenyl-1H,1′H-[3,4′-bipyrazol]-5-yl)urea], less than 0.1 µM.
Consider `COCc1ccc(CN)c(CNC(=O)Nc2c(C)c(-c3cnn(C)c3)nn2-c2ccccc2)c1` [Example 118, 1-(2-(aminomethyl)-5-(methoxymethyl)benzyl)-3-(1′,4-dimethyl-1-phenyl-1H,1′H-[3,4′-bipyrazol]-5-yl)urea], for which the IC50 lay in the range of 0.1 to 1 µM.
As for `COCc1ccc(CNCC(F)(F)F)c(CNC(=O)Nc2c(C)c(-c3cnn(C)c3)nn2-c2ccccc2)c1` [Example 119, 1-(1′,4-dimethyl-1-phenyl-1H,1′H-[3,4′-bipyrazol]-5-yl)-3-(5-(methoxymethyl)-2-(((2,2,2-trifluoroethyl)amino)methyl)benzyl)urea], the IC50 lay within 0.1 to 1 µM.
`COCc1ccc(C2CCC2)c(CNC(=O)Nc2c3c(nn2-c2ccccc2)CSC3)c1` [Example 120, 1-(2-cyclobutyl-5-(methoxymethyl)benzyl)-3-(2-phenyl-4,6-dihydro-2H-thieno[3,4-c]pyrazol-3-yl)urea]: the IC50 is less than 0.1 µM.
Regarding `COCc1ccc(C2CCC2)c(CNC(=O)Nc2c3c(nn2-c2ccccc2)CS(=O)(=O)C3)c1` [Example 121, 1-(2-cyclobutyl-5-(methoxymethyl)benzyl)-3-(5,5-dioxido-2-phenyl-4,6-dihydro-2H-thieno[3,4-c]pyrazol-3-yl)urea], the IC50 was less than 0.1 µM.
As for `COCc1ccc(C2CCC2)c(CNC(=O)Nc2c(C)c(=O)[nH]n2-c2ccccc2)c1` [Example 122, 1-(2-cyclobutyl-5-(methoxymethyl)benzyl)-3-(4-methyl-5-oxo-2-phenyl-2,5-dihydro-1H-pyrazol-3-yl)urea], the IC50 is less than 0.1 µM.
To `CSCc1ccc(C2CCC2)c(CNC(=O)Nc2c(C)c(-c3cnn(C)c3)nn2-c2ccccc2)c1` [Example 123, 1-(2-cyclobutyl-5-((methylthio)methyl)benzyl)-3-(1′,4-dimethyl-1-phenyl-1H,1′H-[3,4′-bipyrazol]-5-yl)urea] belongs less than 0.1 µM; to `COCc1ccc(C2CCC2)c(CNC(=O)Nc2c(C)c(OC[C@H]3COC(C)(C)O3)nn2-c2ccccc2)c1` [Example 124, (S)-1-(2-cyclobutyl-5-(methoxymethyl)benzyl)-3-(3-((2,2-dimethyl-1,3-dioxolan-4-yl)methoxy)-4-methyl-1-phenyl-1H-pyrazol-5-yl)urea], less than 0.1 µM; to `COCc1ccc(C2CCC2)c(CNC(=O)Nc2c(C)c(OC[C@H](O)CO)nn2-c2ccccc2)c1` [Example 125, (R)-1-(2-cyclobutyl-5-(methoxymethyl)benzyl)-3-(3-(2,3-dihydroxypropoxy)-4-methyl-1-phenyl-1H-pyrazol-5-yl)urea], less than 0.1 µM.
For the compound `COCc1ccc(C2CCC2)c(CNC(=O)Nc2c(C)c(OCc3nnc(C)o3)nn2-c2ccccc2)c1` [Example 126, 1-(2-cyclobutyl-5-(methoxymethyl)benzyl)-3-(4-methyl-3-((5-methyl-1,3,4-oxadiazol-2-yl)methoxy)-1-phenyl-1H-pyrazol-5-yl)urea], the IC50 was less than 0.1 µM.
Turning to `CSc1ccc(C2CCC2)c(CNC(=O)Nc2c(C)c(-c3cnn(C)c3)nn2-c2ccccc2)c1` [Example 127, 1-(2-cyclobutyl-5-(methylthio)benzyl)-3-(1′,4-dimethyl-1-phenyl-1H,1H-[3,4′-bipyrazol]-5-yl)urea], the IC50 was 0.1 to 1 µM.
With `CCSc1ccc(C2CCC2)c(CNC(=O)Nc2c(C)c(-c3cnn(C)c3)nn2-c2ccccc2)c1` [Example 128, 1-(2-cyclobutyl-5-(ethylthio)benzyl)-3-(1′,4-dimethyl-1-phenyl-1H,1′H-[3,4′-bipyrazol]-5-yl)urea], the IC50 fell in the range of 0.1 to 1 µM.
Turning to `COCc1cccc(C(Cc2ccccc2)NC(=O)Nc2c(C)c(-c3cnn(C)c3)nn2-c2ccccc2)c1` (stereo not drawn) [Example 129, 1-(1′,4-dimethyl-1-phenyl-1H,1′H-[3,4′-bipyrazol]-5-yl)-3-(1-(3-(methoxymethyl)phenyl)-2-phenylethyl)urea], the concentration for half-maximal inhibition (IC50) is less than 0.1 µM.
As to `COCc1ccc(OC(F)(F)F)c(CNC(=O)Nc2c(C)c(OC3CN4CCC3CC4)nn2-c2ccccc2)c1` (stereo not drawn) [Example 130, 1-(5-(methoxymethyl)-2-(trifluoromethoxy)benzyl)-3-(4-methyl-1-phenyl-3-(quinuclidin-3-yloxy)-1H-pyrazol-5-yl)urea], the IC50 was less than 0.1 µM.
The figure for `COCc1ccc(OC(F)(F)F)c(CNC(=O)Nc2c(C)c(OC[C@@H]3CCC(=O)N3)nn2-c2ccccc2)c1` [Example 131, (S)-1-(5-(methoxymethyl)-2-(trifluoromethoxy)benzyl)-3-(4-methyl-3-((5-oxopyrrolidin-2-yl)methoxy)-1-phenyl-1H-pyrazol-5-yl)urea] is less than 0.1 µM.
For `COCc1cccc(C(NC(=O)Nc2c(C)c(-c3cnn(C)c3)nn2-c2ccccc2)C(F)(F)F)c1` (stereo not drawn) [Example 132], the IC50 is greater than 1 µM.

These data come from patent US9969694B2, “N-(arylalkyl)-N′-pyrazolyl-urea, thiourea, guanidine and cyanoguanidine compounds as TrkA kinase inhibitors” (Array BioPharma Inc., priority 2012, dated 2018).
